Test system: individual adherent cells
Assay: Force measurement from a single adherent cell on microfluidic embedded polymer NEMS force sensor
Format: cell-based
Details: 200 pN force resolution, 10 ms time resolution
Source text: Successful micro-fluidic encapsulation is routine and consistently performed at very high yields, (>90%). The force sensing capabilities of the devices have been tested and calibrated by perturbing the force sensors with glass micro-needles mounted on piezo-electric actuators, data shown in FIG. 6A. The force sensors have been tested in micro-fluidics be measuring their response to shear forces generated by fluid flow. The force sensors have been successfully used to measure forces exerted by individual adherent cells and to study the mechanical response of those cells to cytoskeleton perturbing reagents such as Cytochalasin D.
Such measurements were performed with 200 pN force resolution—an improvement of 25 fold over prior art—and 10 ms time resolution—and improvement of 300 fold over prior art.
These measurements were performed with 200 pN force resolution—an improvement of 25 fold over prior art—and 10 ms time resolution—and improvement of 300 fold over prior art.

C=C1[C@@H](C)[C@H]2[C@H](Cc3ccccc3)NC(=O)[C@]23[C@H](OC(C)=O)/C=C/[C@@](C)(O)C(=O)[C@@H](C)C/C=C/[C@H]3[C@@H]1O [Cytochalasin D]
force exerted by a single cell (force vs. time) when Cytochalasin D is removed (after removal of Cytochalasin D): recovery of the force
force exerted by a single cell (force vs. time) when Cytochalasin D is introduced (stable force in growth media before): collapse of that force
